In EP3228630A1, “COMBINATION OF AN APELIN ANTAGONIST AND AN ANGIOGENESIS INHIBITOR FOR THE TREATMENT OF CANCER” (IMBA-Institut für Molekulare Biotechnologie GmbH, priority 2016, dated 2017):

Tested on: primary human endothelial cells (HUVECs)
Conditions: Apelin Pyr13 500nM, human VEGF 25ng/mL, 5 minutes, serum-free media
Description: Antibody array pathway analysis: For the human phospho-kinase antibody array (R&D Systems), primary HUVEC (human umbilical vein endothelial cells) were cultured overnight with media supplemented with 0.75% of fetal bovine serum (FBS) followed by 15 minutes of media with 0.5%. The cells were then stimulated in serum-free media with either Apelin Pyr13 (BACHEM H-4568, 500nM), human VEGF (Peprotech, 25ng/mL), both of them or either for 5 minutes. 100 µg of cell lysate were added to the membrane and incubated overnight at 4°C with gentle agitation, following the manufacturer instructions. Films were scanned and the intensity of the bands quantified using ImageJ.

apelin-13
pathways regulated (phospho-antibody array): regulate similar pathways in endothelial cells
